Here are results for 3 compounds from US6469028B1, “Synthesis and use of retinoid compounds having negative hormone and/or anatgonist activities” (Allergan, Inc., priority 1995, dated 2002).

One test addresses T1, RARα (Homo sapiens, UniProt P10276).
T1 sequence (P10276 1-462): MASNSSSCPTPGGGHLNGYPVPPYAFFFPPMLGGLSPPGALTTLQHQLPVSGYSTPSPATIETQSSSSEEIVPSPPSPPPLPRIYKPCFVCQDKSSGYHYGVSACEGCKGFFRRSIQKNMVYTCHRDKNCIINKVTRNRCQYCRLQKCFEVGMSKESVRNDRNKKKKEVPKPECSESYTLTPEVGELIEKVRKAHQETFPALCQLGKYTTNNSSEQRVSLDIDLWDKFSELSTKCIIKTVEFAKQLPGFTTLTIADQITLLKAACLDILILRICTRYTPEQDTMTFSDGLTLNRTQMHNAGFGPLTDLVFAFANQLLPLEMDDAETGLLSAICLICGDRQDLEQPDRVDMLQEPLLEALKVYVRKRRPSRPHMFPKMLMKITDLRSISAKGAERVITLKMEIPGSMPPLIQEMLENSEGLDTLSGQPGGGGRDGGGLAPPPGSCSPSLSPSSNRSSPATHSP
As to the kind of experiment: Example 8: protease protection analysis. On the set-up: host or cells: TNT-coupled reticulocyte lysate in vitro transcription-translation. It is filed as biochemical. The settings on record: ATRA and AGN 193109 100 nM, AGN 193583 1000 nM; trypsin 25, 50 or 100 μg/ml, 10 minutes. Here is the method: A plasmid constructed in the vector pGEM3Z (Pharmacia) and containing the RAR-α cDNA (Giguere et al. Nature 330:624 (1987)), was used in connection with the TNT-coupled reticulocyte lysate in vitro transcription-translation system (Promega) to prepare [^35S]-methionine labeled RAR-α. Limited proteolytic digestion of the labeled protein RAR-α was carried out according to the method described by Keidel et al. in Mol. Cell. Biol. 14:287 (1994). […] After ligand binding, 1 μl of appropriately concentrated trypsin was added to the mixture to give final concentrations of 25, 50 or 100 μg/ml. Samples were incubated at room temperature for 10 minutes and trypsin digestion stopped by addition of SDS-sample buffer. Samples were subjected to polyacrylamide gel electrophoresis and autoradiographed according to standard procedures.

Test [1] concerns RAR-γ-VP-16 with ER-RXR-α. The settings on record: no other retinoid added, 18 hours.
Test [2] has as its system cultured cervical carcinoma cells. As to the kind of experiment: Example 23: cultured cervical carcinoma cells from a patient biopsy. It is filed as cell-based. The settings on record: 10^−10 to 10^−6 M. From the text:
A patient presenting with an advanced cervical carcinoma is first identified. A cervical biopsy is obtained according to methods that will be familiar to one having ordinary skill in the art. Cells from the explanted tumor are propagated in tissue culture according to standard techniques to provide cell numbers sufficient to allow division into three sample groups. Culture conditions described by Agarwal et al. in Cancer Res. 54:2108 (1994) are employed for this purpose. The first group is reserved as a control and receives vehicle alone (ethanol). The second group is treated with the RAR agonist retinoic acid at a concentration of from 10^−10 to 10^−6 M. The third group is treated with AGN 193109 at doses ranging from 10^−10 to 10^−6 M. Cells are fed with fresh growth medium daily and are provided with the retinoids described above as appropriate for each sample group. Cells are counted after three days using an electric cell counter.

The test system of the next test is ER-RAR-α. As to the kind of experiment: Example 10: repression of basal gene activity, ERE-tk-Luc, CV-1 cells. The following applies: 10^−9 to 10^−6 M, 18 hours, single agent. In kind it is cell-based. The text has this: (§1) More specifically, these procedures employed the ER-RAR chimeric receptor and ERE-tk-Luc reporter system. The ERE-tk-Luc plasmid includes the region −397 to −87 of the estrogen responsive 5′-flanking region of the Xenopus vitellogenin A2 gene, described by Klein-Hitpass, et al. in Cell 46:1053-1061 (1986), ligated upstream of the HSV thymidine kinase promoter and luciferase reporter gene of plasmid tk-Luc. The ER-RAR chimeric receptors consisted of the estrogen receptor DNA binding domain fused to the “D-E-F” domain of the RARs. Those having ordinary skill in the art appreciate this “D-E-F” domain functions to bind retinoid, to provide a retinoid inducible transactivation function and to provide a contact site for heterodimerization with RXR. Thus, luciferase expression in this reporter system was dependent on activation of the transfected chimeric receptor construct.
(§2) CV-1 cells were co-transfected with the ERE-tk-Luc reporter plasmid and either ER-RAR-α, ER-RAR-β or ER-RAR-γ expression plasmids. The ERE-tk-Luc plasmid contained the estrogen-responsive promoter element of the Xenopus laevis vitellogenin A2 gene and was substantially identical to the reporter plasmid described by Klein-Hitpass et al. in Cell 46:1053 (1986), except that the CAT reporter gene was substituted by a polynucleotide sequence encoding luciferase. The ER-RAR-α, ER-RARβ and ER-RAR-γ chimeric receptor-encoding polynucleotides employed in the co-transfection have been described by Graupner et al. in Biochem. Biophys. Res. Comm. 179:1554 (1991). […] Calcium phosphate transfections were carried out exactly as described in Example 6 using 0.5 μg/well of reporter plasmid and either 0.05 μg, 0.10 μg or 0.2 μg/well of receptor plasmid. […] Cell lysates and luciferase activity measurements were performed as described in Example 6.

A further test deals with ER-RAR-γ. Described as above. It is filed as cell-based. The settings on record: 10^−9 to 10^−6 M, 18 hours, single agent.
Text: as §1, §2

A further test deals with ER-RAR-β. The description is as above. In kind it is cell-based. The following applies: 10^−9 to 10^−6 M, 18 hours, single agent.
Text: as §1, §2

Test [3] relates to retinal pigment epithelium (RPE) cells. The test is described as follows: Example 19: proliferation of primary retinal pigment epithelium cultures. The settings on record: for RPE cell growth: single agent, 10^−12 to 10^−6M (FIG. 18). It is filed as cell-based, human. The protocol:
Primary cultures of human retinal pigment epithelium (RPE) were established according to the method described by Campochiaro et al. in Invest. Opthal & Vis. Sci. 32:65 (1991). 5×10^4 cells were plated in 16-mm wells of 24-well multiwell plates in DMEM (Gibco) containing 5% FBS. […] Cells were fed with fresh media containing the appropriate concentrations of these compounds every two days for a total of five days of treatment. Cells were removed from the plates by gentle digestion with trypsin and the number of cells was counted with an electronic cell counter.
AGN 193109 was tested for its ability to potentiate the anti-proliferative effect of 13-cis retinoic acid (13-cis RA) in primary RPE cultures using conditions and techniques to measure RPE cell proliferation described above. […] More particularly, 13-cis RA is useful in the treatment of several disease states, including acne (Peck et al. N. Engl. J. Med. 300:329 (1977); Jones et al. Br. J. Dermatol. 108:333 (1980)), and squamous cell carcinoma of the skin and cervix in combination treatment with interferon 2α (Lippman et al. J. Natl. Cancer Inst. 84:241 (1992); Moore et al. Seminars in Hematology 31:31 (1994)).
We next tested the ability of AGN 193109 to potentiate the activities of other nuclear receptor hormones in primary RPE cell cultures. Dexamethasone, a synthetic glucocorticoid receptor agonist, is one member of a class of compounds that have been used clinically for their potent anti-inflammatory and immunosuppressive properties. Thyroid hormone (T3; […]) is a natural thyroid hormone receptor agonist used primarily for hormone replacement therapy in the treatment of hypothyroidism.

A further test relates to rabbits. The test is described as follows: Example 24: rabbit model of proliferative vitreoretinopathy (PVR). It is filed as in vivo.
The subject of the next test is primary RPE cells. As to the kind of experiment: Example 27: proliferation of primary RPE cells with TR-1. The following applies: five days of treatment. It is filed as cell-based, Human. Here is the method:
Human primary RPE cells are obtained and cultured according to standard methods. The cultured cells are divided into four groups and treated as follows. Group 1 receives vehicle alone (ethanol). Group 2 is treated with 13-cis retinoic acid at concentrations ranging from 10^−11 to 10^−6 M. Group 3 is treated with the thyroid hormone inverse agonist TR-1 at concentrations ranging from 10^−11 to […]. Group 4 is co-treated with 13-cis retinoic acid at concentrations ranging from 10^−11 to 10^−6 M TR-1. Cells are refed with fresh growth medium and re-treated with the appropriate compound every two days for a total of five days of treatment. The proliferation rate over the duration of the experiment is quantitated via measurement of the cell number in the cultures using an electric cell counter.

The test system of test [4] is patients having retinal detachment resulting from PVR. The settings on record: 40 mg oral 13-cis retinoic acid twice daily for four weeks.
The next test concerns T3R-VP-16. As to the kind of experiment: Example 26: thyroid hormone receptor negative hormone assay, CV-1 cells. It is filed as cell-based. The following applies: CV-1 cells with ERE-tk-Luc, ER-RXRα and T3R-VP-16. From the text:
CV-1 cells are co-transfected with the luciferase reporter plasmid ERE-tk-Luc and the plasmids ER-RXR-α and T3R-VP-16. T3R-VP-16 is identical to the plasmid RAR-γ-VP-16, except the RAR-γ moiety of RAR-γ-VP-16 has been substituted by the thyroid hormone receptor cDNA. As such, T3R-VP-16 expresses a fusion protein containing the activation domain of HSV VP-16 in frame with the N-terminus of the thyroid hormone receptor. Standard transfection and cell culture methods are employed for this purpose. After transfection, cells are rinsed and fed with growth medium containing 10% fetal calf serum which has been extracted with activated charcoal. Cells are treated with vehicle alone (ethanol), thyroid hormone (10^−9 to 10^−10 M), or compound TR-1 (10^−9 to 10^−6 M). […] Further, TR-1 is capable of antagonizing thyroid hormone mediated transactivation and as such is a thyroid receptor antagonist.

Regarding `CC1=C(/C=C/C(C)=C/C=C/C(C)=C/C(=O)O)C(C)(C)CCC1` [ATRA, all-trans-retinoic acid, reference compound], at RARα, the “pattern of trypsin sensitivity of labeled RAR-α after prebinding” value is “two major protease resistant species”. Further, the “luciferase activity of triple transfectants” value in test [1] was “modest increase of luciferase activity over the high basal level”. Further, the “cell number after three days” value in [2] was “does not substantially inhibit the growth rate”. The luciferase reporter activity entry with ER-RAR-α, in the test on ER-RAR-γ and in the test with ER-RAR-β was “strongly induced luciferase expression” throughout. Also, the RPE cell growth entry in test [3] is reported as “effectively inhibited RPE cell growth”. For the same compound, in test [3] (single-agent treatment (FIG. 19): dexamethasone 10^−11 to 10^−6M, ATRA 10^−12 to 10^−6M), the RPE cell proliferation entry is “substantially unable to inhibit RPE cell proliferation”. For the same compound, the “frequency and severity of tractional retinal detachment” value in the test on rabbits (retinoic acid 100 μg intravitreal, single agent) was “significantly reduced frequency and severity of retinal detachment”.

For `CC1=C(/C=C/C(C)=C/C=C/C(C)=C\C(=O)O)C(C)(C)CCC1` [13-cis RA, 13-cis retinoic acid, reference compound], the “cellular proliferation, single agent” value in the test on primary RPE cells is “dose dependent decrease in cell number”. In [3] (13-cis RA 10^−12 to 10^−6M), the “effectiveness compared with ATRA” value is recorded as “approximately two orders of magnitude less effective”. In [3], the RPE cell growth result is listed as “effectively inhibited RPE cell growth”. For the same compound, in [4], the “incidence of retinal redetachment” value is given as “significantly reduced incidence of retinal redetachment”.

With `N[C@@H](Cc1cc(I)c(Oc2ccc(O)c(I)c2)c(I)c1)C(=O)O` [thyroid hormone, 3,3′,5-triiodothyronine, reference compound], the luciferase activity result with T3R-VP-16 is “slight increase of luciferase activity in a dose dependent manner”. In addition, the RPE cell proliferation entry in [3] (thyroid hormone alone, 10^−11 to 10^−6M) is recorded as “refractory to single-agent treatment”. In addition, the “retinal detachment compared with control rabbits” value in the test with rabbits (second study, single agent 100 μg intravitreal) is “does not inhibit retinal detachment”.
